# Reference: ChEMBL document CHEMBL4043224, “d-Amino acid mutation of PMI as potent dual peptide inhibitors of p53-MDM2/MDMX interactions” (Bioorg Med Chem Lett, 2017)
# What was measured:
# [1] = Cytotoxicity against human U87 cells assessed as reduction in cell viability after 24 hrs by MTT assay; conditions: U-87 MG
# Cathepsin G [2] = biological target: T1, Cathepsin G (Homo sapiens, UniProt P08311); assay: Drug metabolism assessed as cathepsin G (unknown origin)-mediated compound hydrolysis after 4 hrs by RP-HPLC analysis; assay type: ADME
# T1 sequence (P08311 whole entry): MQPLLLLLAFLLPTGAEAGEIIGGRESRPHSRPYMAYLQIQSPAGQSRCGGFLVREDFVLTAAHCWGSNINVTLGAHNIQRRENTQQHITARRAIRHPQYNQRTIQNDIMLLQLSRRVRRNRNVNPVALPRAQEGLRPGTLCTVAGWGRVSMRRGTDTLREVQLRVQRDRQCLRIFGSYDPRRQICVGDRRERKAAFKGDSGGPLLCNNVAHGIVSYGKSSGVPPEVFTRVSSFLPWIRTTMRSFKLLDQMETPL
# Cathepsin G [3] = biological target: T1, Cathepsin G; assay: Drug metabolism assessed as cathepsin G (unknown origin)-mediated compound hydrolysis after 8 hrs by RP-HPLC analysis; assay type: ADME
Drug metabolism (Cathepsin G [2]),Drug metabolism (Cathepsin G [3]),Compound,IC50 [1] [µM]
Metabolite_Detected,–,H-TSFAEYWNLLSP-OH,67.6
–,–,CC(C)C[C@H](NC(=O)[C@H](CC(N)=O)NC(=O)[C@H](Cc1c[nH]c2ccccc12)NC(=O)[C@H](Cc1ccc(O)cc1)NC(=O)[C@H](CCC(=O)O)NC(=O)[C@H](C)NC(=O)[C@H](Cc1ccccc1)NC(=O)[C@H](CO)NC(=O)[C@@H](N)[C@@H](C)O)C(=O)N[C@@H](CC(C)C)C(=O)N[C@@H](C(=O)N1CCC[C@H]1C(=O)O)[C@H](C)O,45.7
–,–,CC(C)C[C@H](NC(=O)[C@H](CC(N)=O)NC(=O)[C@H](Cc1c[nH]c2ccccc12)NC(=O)[C@H](Cc1ccc(O)cc1)NC(=O)[C@H](CCC(=O)O)NC(=O)[C@H](C)NC(=O)[C@H](Cc1ccccc1)NC(=O)[C@H](CO)NC(=O)[C@@H](N)[C@@H](C)O)C(=O)N[C@@H](CC(C)C)C(=O)N[C@H](Cc1ccc(O)cc1)C(=O)N1CCC[C@H]1C(=O)O,30.9
–,Metabolite_Detected,CC(C)C[C@H](NC(=O)[C@H](CC(N)=O)NC(=O)[C@H](Cc1c[nH]c2ccccc12)NC(=O)[C@H](Cc1ccc(O)cc1)NC(=O)[C@H](CCC(=O)O)NC(=O)[C@H](C)NC(=O)[C@H](Cc1ccccc1)NC(=O)[C@H](CO)NC(=O)[C@@H](N)[C@@H](C)O)C(=O)N[C@@H](CC(C)C)C(=O)N[C@H](Cc1ccccc1)C(=O)N1CCC[C@H]1C(=O)O,54.3
–,–,COc1ccc(C2=N[C@H](c3ccc(Cl)cc3)[C@H](c3ccc(Cl)cc3)N2C(=O)N2CCNC(=O)C2)c(OC(C)C)c1,5.93
–,–,CC(C)C[C@H](NC(=O)[C@H](CC(N)=O)NC(=O)[C@H](Cc1c[nH]c2ccccc12)NC(=O)[C@H](Cc1ccc(O)cc1)NC(=O)[C@H](CCC(=O)O)NC(=O)[C@H](C)NC(=O)[C@H](Cc1ccccc1)NC(=O)[C@H](CO)NC(=O)[C@@H](N)[C@@H](C)O)C(=O)N[C@@H](CC(C)C)C(=O)N[C@H](Cc1cnc[nH]1)C(=O)N1CCC[C@H]1C(=O)O,43.5
